From paper PMC11946679 (Toxics, 2025)

Test system: human peripheral blood lymphocytes
Experiment: CBMN cytome assay: micronuclei, nuclear buds, nucleoplasmic bridges
Details: 3 h
[1] = 1× + IRI 9.0 mg/L, propolis 1.36 mg/L, galangin 0.02 mg/L
[2] = 1× alone, propolis 1.36 mg/L, galangin 0.02 mg/L
[3] = 5× + IRI 9.0 mg/L, propolis 6.8 mg/L, galangin […]
[4] = 5× alone, propolis 6.8 mg/L, galangin […]

Procedure: The CBMN assay was performed in line with standard protocols [8, 23].
To collect the blood sample, lithium heparin-coated tubes were used (BD vacutainer® with LH 170 I.U., Becton Dickinson: BD-Plymouth PL6 78P, UK).
There were 15 experimental groups altogether. The same experimental design was applied in two independent trials, each of which had two replicate cultures per experimental group; therefore, four replicate cultures for every single experimental group were established.
To induce cell division prior to exposure to the test chemicals, lymphocytes were stimulated with the mitogen phytohemagglutinin (PHA). Cultures were kept in a humidified atmosphere of 5% CO2 at 37 °C.
They started 41 h after PHA stimulation and lasted for 3 h at 37 °C.
Upon completion of exposure, lymphocyte cultures were centrifuged at 100× g. […] This procedure was timed for the 44th hour of lymphocyte cultivation, which represents a critical point for adding of cytoB to hinder cytokinesis and obtain binucleated cells. All treated and control cultures were further maintained at 37 °C until the end of the 72nd hour of cultivation, according to the above-mentioned standard protocols.
The first step in the preparation of microscopic slides was harvesting of cells by centrifugation (100× g), followed by treatment with 0.075 mol/L potassium chloride and succeeded by centrifugation. The sediments of cells were repeatedly fixed with methanol/acetic acid (3:1 v/v) followed by centrifugation. The final lymphocyte suspension was pipetted onto clean microscope slides. For staining, 5% aqueous solution of Giemsa dye was used. Slides were screened using a light microscope at 1000× magnification. For morphological discrimination of micronuclei (MNi), nuclear buds (NBs), nucleoplasmic bridges (NPBs) and cells in apoptosis or necrosis, the criteria by Fenech et al. [25] and Fenech [23] were applied. To determine their frequencies, per experimental point, a total of 4 × 1000 binucleated (BN) cells were scored.
This value was first used to estimate the number of MNi required to reach a decrease and an increase considered significant at a 5% significance level.

## O=c1c(O)c(-c2ccccc2)oc2cc(O)cc(O)c12 [Galangin]
[1]
  Distribution of BNMN Cells with 1 MN: 45 c,p1,p5,p10,g1,g5,g10,p1+iri, p5+iri, p10+iri
  Distribution of BNMN Cells with 2 MN: 1
  Distribution of BNMN Cells with 3 MN: 0
  Distribution of BNMN Cells with 4 MN: 0
  Distribution of BNNB Cells with 1 NB: 33 c,p1,p5, p10,g1,g5,g10, p1+iri, p10+iri
  Distribution of BNNB Cells with 2 NB: 2
  Distribution of BNNPB Cells with 1 NPB: 0
  Distribution of BNNPB Cells with 2 NPB: 0
  Micronuclei (MNi) Mean (BNMN)1000 ± SD: 11.50 ± 3.70 c,p1,p5,p10,g1,g5, g10,p1+iri, p5+iri, p10+iri
  Micronuclei (MNi) Mean (MNi)1000 ± SD: 11.75 ± 4.11 c,p1,p5,p10,g1,g5,g10, p1+iri
  Micronuclei (MNi) Total (BNMN)4000: 46 c,p1,p5,p10,g1,g5,g10, p1+iri, p5+iri, p10+iri
  Micronuclei (MNi) Total (MNi)4000: 47 c,p1,p5,p10,g1,g5, g10,p1+iri
  Nuclear Buds (NBs) Mean (BNNB)1000 ± SD: 8.75 ± 0.96 c,p1,p5,p10, g1,g5,g10, p1+iri,p5+iri, p10+iri
  Nuclear Buds (NBs) Mean (NBs)1000 ± SD: 9.25 ± 1.50 c,p1,p5,p10,g1,g5,g10, p1+iri,p5+iri, p10+iri
  Nuclear Buds (NBs) Total (BNNB)4000: 35 c,p1,p5,p10, g1,g5,g10, p1+iri,p5+iri,p10+iri
  Nuclear Buds (NBs) Total (NBs)4000: 37 c,p1,p5, p10,g1,g5, g10, p1+iri, p5+iri, p10+iri
  Nucleoplasmic Bridges (NPBs) Mean (BNNPB)1000 ± SD: 0
  Nucleoplasmic Bridges (NPBs) Mean (NPBs)1000 ± SD: 0
  Nucleoplasmic Bridges (NPBs) Total (BNNPB)4000: 0
  Nucleoplasmic Bridges (NPBs) Total (NPBs)4000: 0
1× + IRI 9.0 mg/L, propolis 1.36 mg/L, galangin 0.02 mg/L, listed as galangin
  Micronuclei (MNi) Mean (MNi)1000 ± SD: 11.75
[2]
  Distribution of BNMN Cells with 1 MN: 8
  Distribution of BNMN Cells with 2 MN: 0
  Distribution of BNMN Cells with 3 MN: 0
  Distribution of BNMN Cells with 4 MN: 0
  Distribution of BNNB Cells with 1 NB: 7
  Distribution of BNNB Cells with 2 NB: 0
  Distribution of BNNPB Cells with 1 NPB: 0
  Distribution of BNNPB Cells with 2 NPB: 0
  Micronuclei (MNi) Mean (BNMN)1000 ± SD: 2.00 ± 0.82
  Micronuclei (MNi) Mean (MNi)1000 ± SD: 2.00 ± 0.82
  Micronuclei (MNi) Total (BNMN)4000: 8
  Micronuclei (MNi) Total (MNi)4000: 8
  Nuclear Buds (NBs) Mean (BNNB)1000 ± SD: 1.75 ± 0.50
  Nuclear Buds (NBs) Mean (NBs)1000 ± SD: 1.75 ± 0.50
  Nuclear Buds (NBs) Total (BNNB)4000: 7
  Nuclear Buds (NBs) Total (NBs)4000: 7
  Nucleoplasmic Bridges (NPBs) Mean (BNNPB)1000 ± SD: 0
  Nucleoplasmic Bridges (NPBs) Mean (NPBs)1000 ± SD: 0
  Nucleoplasmic Bridges (NPBs) Total (BNNPB)4000: 0
  Nucleoplasmic Bridges (NPBs) Total (NPBs)4000: 0
1× alone, propolis 1.36 mg/L, galangin 0.02 mg/L, listed as galangin
  Micronuclei (MNi) Mean (MNi)1000 ± SD: 2.00
[3]
  Distribution of BNMN Cells with 1 MN: 43 c,p1,p5, p10,g1,g5, g10,p1+iri, p5+iri, p10+iri
  Distribution of BNMN Cells with 2 MN: 1
  Distribution of BNMN Cells with 3 MN: 0
  Distribution of BNMN Cells with 4 MN: 0
  Distribution of BNNB Cells with 1 NB: 32 c,p1,p5, p10,g1, g5,g10, p1+iri, p10+iri
  Distribution of BNNB Cells with 2 NB: 0
  Distribution of BNNPB Cells with 1 NPB: 0
  Distribution of BNNPB Cells with 2 NPB: 0
  Micronuclei (MNi) Mean (BNMN)1000 ± SD: 11.00 ± 0.82 c,p1,p5,p10,g1,g5, g10,p1+iri, p5+iri
  Micronuclei (MNi) Mean (MNi)1000 ± SD: 11.25 ± 0.96 c,p1,p5,p10,g1,g5,g10, p1+iri
  Micronuclei (MNi) Total (BNMN)4000: 44 c,p1,p5,p10,g1,g5,g10, p1+iri, p5+iri
  Micronuclei (MNi) Total (MNi)4000: 45 c,p1,p5,p10,g1,g5, g10,p1+iri
  Nuclear Buds (NBs) Mean (BNNB)1000 ± SD: 8.00 ± 1.41 c,p1,p5,p10, g1,g5,g10, p1+iri,p10+iri
  Nuclear Buds (NBs) Mean (NBs)1000 ± SD: 8.00 ± 1.41 c,p1,p5,p10,g1,g5,g10, p1+iri,p10+iri
  Nuclear Buds (NBs) Total (BNNB)4000: 32 c,p1,p5,p10, g1,g5,g10, p1+iri, p10+iri
  Nuclear Buds (NBs) Total (NBs)4000: 32 c,p1,p5, p10,g1,g5, g10, p1+iri, p10+iri
  Nucleoplasmic Bridges (NPBs) Mean (BNNPB)1000 ± SD: 0
  Nucleoplasmic Bridges (NPBs) Mean (NPBs)1000 ± SD: 0
  Nucleoplasmic Bridges (NPBs) Total (BNNPB)4000: 0
  Nucleoplasmic Bridges (NPBs) Total (NPBs)4000: 0
5× + IRI 9.0 mg/L, propolis 6.8 mg/L, galangin […], listed as galangin
  Micronuclei (MNi) Mean (MNi)1000 ± SD: 11.25
[4]
  Distribution of BNMN Cells with 1 MN: 9
  Distribution of BNMN Cells with 2 MN: 0
  Distribution of BNMN Cells with 3 MN: 0
  Distribution of BNMN Cells with 4 MN: 0
  Distribution of BNNB Cells with 1 NB: 9
  Distribution of BNNB Cells with 2 NB: 0
  Distribution of BNNPB Cells with 1 NPB: 0
  Distribution of BNNPB Cells with 2 NPB: 0
